Experimental data as given in patent publication US9006224B2, “Neuroendocrine tumor treatment” (Novartis AG, priority 2005, dated 2015).

Experiments:
Assay type in all cases: cell-based
[1] = system: A cell line, e.g. A549, KB-31 and HCT116 lines; experiment: Antiproliferative activity in combination with other agents (Calcusyn combination index); settings: e.g. with somastatin or a somastatin analogue, 3 days incubation, methylene blue staining
Method: (§1) Subsequently, a two-fold dilution series of each compound (an mTOR inhibitor other than Compound A or a known chemotherapeutic agent) is made in separate tubes (starting at 8× the IC50 of each compound) either alone or in paired combinations, and the dilutions are added to the wells.
(§2) The cells are then re-incubated for 3 days. Methylene blue staining is performed on day 4 and the amount of bound dye (proportional to the number of surviving cells that bind the dye) determined. IC50s are subsequently determined using the Calcusyn program, which provides a measure of the interaction, namely the so-called non-exclusive combination index (CI), where: CI˜1=the interaction is nearly additive; 0.85-0.9=slight synergism; <0.85=synergy.

[2] = system: cells which are otherwise resistant to endocrine agent treatment; experiment: In vitro studies: restoring activity of endocrine agents in resistant cells
From the text: Several studies have implicated aberrant activity of the Akt kinase as a significant mechanism by which breast cancer tumors are unresponsive to endocrine therapy.

HCT116 = experiment: Antiproliferative activity, methylene blue staining, HCT116 line
Method: as §1, §2

KB-31 = experiment: Antiproliferative activity, methylene blue staining, KB-31 line
Method: as §1, §2

A549 line = experiment: Antiproliferative activity, methylene blue staining, A549 line
Method: as §1, §2

- IC50 (HCT116): micromolar range
- IC50 (KB-31): micromolar range
- IC50 (A549 line): low nM range
SMILES: CO[C@H]1C[C@@H]2CC[C@@H](C)[C@@](O)(O2)C(=O)C(=O)N2CCCC[C@H]2C(=O)O[C@H]([C@H](C)C[C@@H]2CC[C@@H](OCCO)[C@H](OC)C2)CC(=O)[C@H](C)/C=C(\C)[C@@H](O)[C@@H](OC)C(=O)[C@H](C)C[C@H](C)/C=C/C=C/C=C/1C [Compound A, 40-O-(2-hydroxyethyl)-rapamycin]
- antiproliferative activity in combination with another chemotherapeutic agent [1]: interesting antiproliferative activity
- restoration of activity of endocrine agents (estrogen inhibitors and/or aromatase inhibitors) [2]: able to restore activity of endocrine agents
